pIC50: −log10 of the molar value.

For series [1], the species on record is Homo sapiens. The series can be described thus: Selectivity for ROCK1 over p70S6K.
The next series deals with Aorta. The series can be described thus: Relaxation of phenylephrine contracted Sprague-Dawley rat aortic rings. The format is functional, tissue-based.
Series [2] can be described thus: Cmax in Sprague-Dawley rat at 1 mg/kg, iv. Type of series: ADME, organism-based. On the set-up: dose 1 mg/kg, route intravenous. The settings on record: in vivo.
Series [3] is described as follows: Cmax in Sprague-Dawley rat at 2.2 mg/kg, po. The format is ADME, organism-based. On the set-up: dose 2.2 mg/kg, route oral. The settings on record: in vivo.
The nature of series [4]: Oral bioavailability in Sprague-Dawley rat at 2.2 mg/kg, po. Type of series: ADME, organism-based. The settings on record: in vivo.
Series [5] in a line: Volume of distribution in Sprague-Dawley rat at 1 mg/kg, iv. On the set-up: dose 1 mg/kg, route intravenous. The settings on record: in vivo, read-out: Vdss. Type of series: ADME, organism-based.
In series [6] the target is Rho-associated protein kinase 1 (Homo sapiens, UniProt Q13464). As to the kind of experiment: Inhibition of human ROCK1 in Sf9 cells. Type of series: cell-based.
Rho-associated protein kinase 1, sequence (Q13464 whole entry): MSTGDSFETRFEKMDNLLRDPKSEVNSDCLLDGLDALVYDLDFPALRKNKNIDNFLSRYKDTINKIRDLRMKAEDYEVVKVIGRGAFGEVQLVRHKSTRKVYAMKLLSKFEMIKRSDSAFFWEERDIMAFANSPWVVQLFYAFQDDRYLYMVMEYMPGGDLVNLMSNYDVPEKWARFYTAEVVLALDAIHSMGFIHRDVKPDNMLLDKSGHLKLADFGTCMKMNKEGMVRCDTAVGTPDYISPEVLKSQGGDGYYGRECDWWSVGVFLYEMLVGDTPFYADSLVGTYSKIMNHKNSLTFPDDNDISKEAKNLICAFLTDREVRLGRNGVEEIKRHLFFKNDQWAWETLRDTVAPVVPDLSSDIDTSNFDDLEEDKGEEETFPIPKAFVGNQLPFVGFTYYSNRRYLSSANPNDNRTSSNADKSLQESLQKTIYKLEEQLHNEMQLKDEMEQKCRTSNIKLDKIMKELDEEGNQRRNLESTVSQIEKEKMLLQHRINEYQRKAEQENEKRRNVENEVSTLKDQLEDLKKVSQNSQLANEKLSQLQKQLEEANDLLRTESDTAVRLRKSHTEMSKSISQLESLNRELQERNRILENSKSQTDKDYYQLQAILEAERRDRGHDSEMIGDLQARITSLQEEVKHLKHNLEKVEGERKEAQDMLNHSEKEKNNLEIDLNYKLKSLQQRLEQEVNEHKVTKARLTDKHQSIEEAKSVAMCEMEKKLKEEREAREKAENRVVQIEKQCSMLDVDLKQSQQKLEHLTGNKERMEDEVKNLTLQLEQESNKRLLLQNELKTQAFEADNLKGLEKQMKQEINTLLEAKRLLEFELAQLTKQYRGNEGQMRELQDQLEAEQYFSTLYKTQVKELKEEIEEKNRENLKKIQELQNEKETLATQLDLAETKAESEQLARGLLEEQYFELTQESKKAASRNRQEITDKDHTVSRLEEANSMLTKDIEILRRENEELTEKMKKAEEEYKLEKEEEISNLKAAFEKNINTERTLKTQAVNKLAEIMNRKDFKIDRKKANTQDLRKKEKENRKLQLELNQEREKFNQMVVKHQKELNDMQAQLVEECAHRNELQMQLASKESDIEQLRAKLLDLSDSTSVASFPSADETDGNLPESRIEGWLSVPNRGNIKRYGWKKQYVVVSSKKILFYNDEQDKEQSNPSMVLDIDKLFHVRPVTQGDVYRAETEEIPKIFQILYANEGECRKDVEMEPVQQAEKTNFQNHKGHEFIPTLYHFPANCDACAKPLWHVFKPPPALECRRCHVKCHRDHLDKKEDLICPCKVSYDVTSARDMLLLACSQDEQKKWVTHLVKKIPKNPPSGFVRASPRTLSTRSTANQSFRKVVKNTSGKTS
The species named for series [7] is Homo sapiens. As to the kind of experiment: Selectivity for ROCK1 over MSK1.
The species entered for series [8] is Homo sapiens. The series can be described thus: Selectivity for ROCK1 over RSK1.
Series [9] in a line: Clearance in Sprague-Dawley rat at 1 mg/kg, iv. Type of series: ADME, organism-based. Further details: dose 1 mg/kg, route intravenous. The settings on record: in vivo.
A short description of series [10]: Half life in Sprague-Dawley rat at 1 mg/kg, iv. As to conditions: in vivo. On the set-up: dose 1 mg/kg, route intravenous. Type of series: ADME, organism-based.
The species named for series [11] is Homo sapiens. As to the kind of experiment: Selectivity for ROCK1 over CDK2.
The species entered for series [12] is Homo sapiens. The series can be described thus: Selectivity for ROCK1 over GSK3-beta.
Series [13] can be described thus: Cmax in Sprague-Dawley rat at 1.1 mg/kg, iv. Type of series: ADME, organism-based. Further details: dose 1.1 mg/kg, route intravenous. As to conditions: in vivo.
A short description of series [14]: Half life in Sprague-Dawley rat at 1.1 mg/kg, iv. The format is ADME, organism-based. Further details: dose 1.1 mg/kg, route intravenous. As to conditions: in vivo.
A short description of series [15]: Volume of distribution in Sprague-Dawley rat at 1.1 mg/kg, iv. Further details: dose 1.1 mg/kg, route intravenous. Type of series: ADME, organism-based. The settings on record: in vivo, read-out: Vdss.
A short description of series [16]: Clearance in Sprague-Dawley rat at 1.1 mg/kg, iv. The format is ADME, organism-based. Further details: dose 1.1 mg/kg, route intravenous. The settings on record: in vivo.
Series [17] in a line: Cmax in Sprague-Dawley rat at 0.85 mg/kg, iv. The format is ADME, organism-based. On the set-up: dose 0.85 mg/kg, route intravenous. The settings on record: in vivo.
Series [18] can be described thus: Clearance in Sprague-Dawley rat at 0.85 mg/kg, iv. The format is ADME, organism-based. On the set-up: dose 0.85 mg/kg, route intravenous. The settings on record: in vivo.
Series [19] is described as follows: Oral bioavailability in Sprague-Dawley rat at 2 mg/kg, po. Type of series: ADME, organism-based. As to conditions: in vivo.
The nature of series [20]: Cmax in Sprague-Dawley rat at 2 mg/kg, po. The format is ADME, organism-based. Further details: dose 2 mg/kg, route oral. The settings on record: in vivo.
The nature of series [21]: Half life in Sprague-Dawley rat at 0.85 mg/kg, iv. Type of series: ADME, organism-based. Further details: dose 0.85 mg/kg, route intravenous. As to conditions: in vivo.
Series [22] is described as follows: Volume of distribution in Sprague-Dawley rat at 0.85 mg/kg. The format is ADME, organism-based. Further details: dose 0.85 mg/kg. As to conditions: in vivo, read-out: Vdss.
Series [23] in a line: Half life in Sprague-Dawley rat at 2.1 mg/kg, iv. Type of series: ADME, organism-based. On the set-up: dose 2.1 mg/kg, route intravenous. The settings on record: in vivo.
Series [24] in a line: Oral bioavailability in Sprague-Dawley rat at 2.1 mg/kg, po. The settings on record: in vivo. Type of series: ADME, organism-based.
Series [25] in a line: Clearance in Sprague-Dawley rat at 2.1 mg/kg, iv. The settings on record: in vivo. Type of series: ADME, organism-based. Further details: dose 2.1 mg/kg, route intravenous.
Series [26] in a line: Cmax in Sprague-Dawley rat at 2.1 mg/kg, iv. The format is ADME, organism-based. Further details: dose 2.1 mg/kg, route intravenous. The settings on record: in vivo.
Series [27] in a line: Cmax in Sprague-Dawley rat at 2.1 mg/kg, po. Type of series: ADME, organism-based. Further details: dose 2.1 mg/kg, route oral. As to conditions: in vivo.
A short description of series [28]: Volume of distribution in Sprague-Dawley rat at 2.1 mg/kg, iv. The format is ADME, organism-based. Further details: dose 2.1 mg/kg, route intravenous. The settings on record: in vivo, read-out: Vdss.

Regarding `CCn1c(-c2nonc2N)nc2cnc(Oc3cccc(NC(=O)c4ccc(CN)cc4)c3)cc21`, the values for the Selectivity ratio in the series filed under Homo sapiens [1], in the series filed under Homo sapiens [7] and in the series listed under Homo sapiens [8] were more than 17, more than 70 and more than 70, respectively. Also, the pIC50 with Aorta was 6.97; in series [6] it was not below 9.00. For the same molecule, the Cmax was 9900 ng/mL in [2] and 255 ng/mL in series [3]. Further, in series [4], the bioavailability stood at 4%. Also, in series [5], the Vd was found to be 0.11 L/kg. Also, the clearance in series [9] was 2.3 mL/min/kg. For the same molecule, in series [10], the half-life is 1.4 h.
On to `CCn1c(-c2nonc2N)nc2cnc(Oc3cccc(C(C)=O)c3)cc21`, for which the Selectivity ratio was 6.2 in the series filed under Homo sapiens [1]; 460 in the series listed under Homo sapiens [11]; 12 in the series filed under Homo sapiens [7]; more than 1000 in the series listed under Homo sapiens [12]; 12 in the series filed under Homo sapiens [8]. The molecule further gave a pIC50 in [6] of 7.89.
On to `CCn1c(-c2nonc2N)nc2cnc(Oc3cccc(N)c3)cc21`, for which the Selectivity ratio in the series listed under Homo sapiens [1] came out at 13; in the series listed under Homo sapiens [11], 320; in the series filed under Homo sapiens [7] it was 9.4; in the series listed under Homo sapiens [12], 300; in the series listed under Homo sapiens [8] it was 8.9. For the same molecule, the pIC50 in series [6] was 7.74.
Regarding `CCn1c(-c2nonc2N)nc2cnc(Oc3cccc(NC(=O)c4ccc(CN5CCOCC5)cc4)c3)cc21`, the Cmax amounted to 1100 ng/mL in series [13] and 684 ng/mL in series [3]. Also, the Selectivity ratio in the series filed under Homo sapiens [1] was more than 10; in the series filed under Homo sapiens [7] it was more than 35; in the series listed under Homo sapiens [8], more than 120. Besides, the pIC50 in the series with Aorta is 6.99; in [6] it was not below 9.00. This molecule also registered a bioavailability in series [4] of 64%. This molecule also gave a half-life in series [14] of 1.4 h. Besides, in series [15], the Vd is 1.1 L/kg. For the same molecule, the clearance in [16] turned out to be 10.7 mL/min/kg.
Take `CCn1c(-c2nonc2N)nc2cnc(Oc3cccc(NC(=O)c4ccc(N(C)C)cc4)c3)cc21` [GSK-248233A]: the Cmax in series [17] was found to be 18600 ng/mL; in series [20] it was 3620 ng/mL. In series [18], this molecule showed a clearance of 0.14 mL/min/kg. Also, the Selectivity ratio was determined as 7 in the series filed under Homo sapiens [1], 13 in the series filed under Homo sapiens [7] and 45 in the series listed under Homo sapiens [8]. For the same molecule, the pIC50 in the series on Aorta is 6.97; in series [6] it was 8.70. This molecule had a bioavailability in series [19] of 11%. In addition, the half-life in [21] was 8.6 h. For the same molecule, the Vd in [22] was determined as 0.09 L/kg.
For `CCn1c(-c2nonc2N)nc2cnc(Oc3cccc(NC(=O)c4ccc(N5CCOCC5)cc4)c3)cc21`, the half-life in series [23] was 0.9 h. For the same molecule, the Selectivity ratio was more than 10 in the series filed under Homo sapiens [1], more than 26 in the series listed under Homo sapiens [7] and more than 60 in the series filed under Homo sapiens [8]. This molecule also registered a bioavailability in series [24] of 23%. The negative-log IC50 (pIC50) in the series with Aorta is 7.23; in series [6], not below 9.00. The clearance in series [25] worked out at 8.6 mL/min/kg. In addition, the Cmax in series [26] turned out to be 1500 ng/mL; in [27] it was 890 ng/mL. Also, the Vd in series [28] is 0.57 L/kg.
Take `CCn1c(-c2nonc2N)nc2cnc(OC)cc21`: the Selectivity ratio in the series listed under Homo sapiens [1] amounted to 15; in the series listed under Homo sapiens [11] it was 55; in the series filed under Homo sapiens [7], 2.3; in the series listed under Homo sapiens [12], 250; in the series listed under Homo sapiens [8] it was 18. This molecule had a pIC50 in series [6] of 8.36.
In the case of `CCn1c(-c2nonc2N)nc2cnc(Oc3cccc(NC(C)=O)c3)cc21`, the Selectivity ratio is 14 in the series filed under Homo sapiens [1]; more than 1000 in the series filed under Homo sapiens [11]; 2.8 in the series filed under Homo sapiens [7]; more than 1000 in the series listed under Homo sapiens [12]; 18 in the series filed under Homo sapiens [8]. Also, in [6], the pIC50 was 8.74.

For orientation: pIC50 means −log10 of the IC50, conventionally taken in molar units. Higher therefore signals a low IC50. As usually defined, the Cmax is the maximum level reached in the sampled fluid or tissue. For orientation: bioavailability means dose-corrected exposure relative to a reference, in per cent. High values mean good availability, low ones poor availability. The clearance is the rate of elimination divided by the concentration. Usually half-life stands for the time in which the quantity being followed falls by half. A high value points to slow loss.

Values taken from ChEMBL document CHEMBL1139215, “Discovery of aminofurazan-azabenzimidazoles as inhibitors of Rho-kinase with high kinase selectivity and antihypertensive activity” (J Med Chem, 2007).
